Laboratory results taken from patent US6806230B1, “Pyrimidine derivatives and herbicides containing them” (Kumiai Chemical Industry Co., Ltd., priority 1999, dated 2004).

Tests used:
Format in all cases: in vivo
monochoria (Mo) [1] = assay: Test Example 4: selectivity for a crop plant by flooded paddy field treatment; design: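 0-5 growth inhibition grade; 5 = over 90%; 4 = 70-90%; 3 = 50-70%; 2 = 30-50%; 1 = 10-30%; 0 = under 10%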; settings: monochoria, dose 25 gai/10a, 21st day after treatment, index per Table 44
Method in brief: (§1)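 Rice at the second-leaf stage is transplanted into puddled, 3 cm-flooded paddy soil alongside sown weed seeds, and a diluted wettable powder is dripped onto the water surface the following day at 25 g a.i./10 ares. Effects are rated 21 days later.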

rice (Or) = assay: as above; design: scale not given here; settings: rice transplanted at second leaf stage, dose 25 gai/10a, 21st day after treatment, index per Table 44
Method in brief: as §1

barnyard grass (Eo) [2] = assay: as above; design: scale not given here; settings: barnyard grass, dose 25 gai/10a, 21st day after treatment, index per Table 44
Method in brief: as §1

monochoria (Mo) [3] = assay: Test Example 1: herbicidal effects by flooded paddy field treatment; design: herbicidal effects, Mo (monochoria):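 0-5 growth inhibition grade; 5 = over 90%; 4 = 70-90%; 3 = 50-70%; 2 = 30-50%; 1 = 10-30%; 0 = under 10%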; settings: dose 100 g active ingredient per 10 ares, examined on the 21st day after treatment, standards of Table 44
Method in brief: (§2)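 Pots hold puddled paddy soil; seeds are sown and the pots flooded 3 cm deep. Next day, diluted wettable powder goes dropwise onto the water at a dose of 100 g active ingredient per 10 ares, and herbicidal effects are rated after 21 days in a greenhouse.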

barnyard grass (Ec) [4] = assay: Test Example 3: herbicidal effects by foliage treatment in upland field; design: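 0-5 growth inhibition grade; 5 = over 90%; 4 = 70-90%; 3 = 50-70%; 2 = 30-50%; 1 = 10-30%; 0 = under 10%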; settings: dose 100 g active ingredient per 10 ares, examined on the 14th day after treatment
Method in brief: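 Barnyard grass and green foxtail were grown in upland soil for 2 weeks in a greenhouse. A water-diluted wettable powder was sprayed over the foliage at 100 l per 10 ares, giving 100 g active ingredient per 10 ares. Herbicidal effect was scored on day 14 after treatment.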

barnyard grass (Ec) [5] = assay: Test Example 2: herbicidal effects by upland soil treatment; design: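 0-5 growth inhibition grade; 5 = over 90%; 4 = 70-90%; 3 = 50-70%; 2 = 30-50%; 1 = 10-30%; 0 = under 10%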; settings: dose 100 g active ingredient per 10 ares, examined on the 21st day after treatment
Method in brief: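 Pre-emergence test: barnyard grass and green foxtail sown in upland soil, then soil surface sprayed with wettable-powder formulation at 100 g active ingredient per 10 ares (100 l per 10 ares). Grown in greenhouse; herbicidal effect scored on a rating scale 21 days after treatment.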

barnyard grass (Eo) [6] = assay: Test Example 1: herbicidal effects by flooded paddy field treatment; design: herbicidal effects, Eo (barnyard grass):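 0-5 growth inhibition grade; 5 = over 90%; 4 = 70-90%; 3 = 50-70%; 2 = 30-50%; 1 = 10-30%; 0 = under 10%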; settings: dose 100 g active ingredient per 10 ares, examined on the 21st day after treatment, standards of Table 44
Method in brief: as §2

SMILES | Mo (herbicidal effect index) (monochoria (Mo) [1]) | Or (herbicidal effect index on crop) (rice (Or)) | Eo (herbicidal effect index) (barnyard grass (Eo) [2]) | herbicidal effects, Mo (monochoria) (monochoria (Mo) [3]) | Ec (herbicidal effects, index) (barnyard grass (Ec) [4]) | Ec (herbicidal effects, index) (barnyard grass (Ec) [5]) | herbicidal effects, Eo (barnyard grass) (barnyard grass (Eo) [6])
CN(C(=O)Cc1ccc(F)cc1)C(c1ccsc1)c1cncnc1C(F)(F)F (racemic) [1-441] | 5 | 1 | 5 | 5 | 4 | 5 | 5
CN(C(=O)Cc1ccc(Cl)cc1)C(c1ccsc1)c1cncnc1C(F)(F)F (racemic) [1-442] | 5 | 1 | 5 | 5 | 4 | 5 | 5
CCCC(c1cncnc1C(C)C)N(C)C(=O)Cc1ccc(C)cc1 (racemic) [1-452] | 5 | 0 | 5 | 5 | 4 | 5 | 5
CCOC(OCC)C(c1cncnc1C(C)C)N(C)C(=O)Cc1ccccc1 (racemic) [1-454] | 5 | 1 | 5 | 5 | 4 | 4 | 5
CCOC(OCC)C(c1cncnc1C(C)C)N(C)C(=O)Cc1ccc(F)cc1 (racemic) [1-455] | 5 | 1 | 5 | 5 | 4 | 5 | 5
CC(C)C(c1cncnc1C(F)(F)F)N(C)C(=O)N(C)c1ccc(C#N)cc1 (racemic) [1-459] | 5 | 1 | 5 | 5 | 4 | 5 | 5
CC(C)C(c1cncnc1C(F)(F)F)N(C)C(=O)NCc1ccccc1 (racemic) [1-461] | 5 | 1 | 5 | 5 | 4 | 5 | 5
CN(C(=O)Cc1ccc(F)cc1)C(c1cncnc1C1(C)CC1)C1(C)CC1 (racemic) [1-473] | 5 | 1 | 5 | 5 | 5 | 5 | 5
COc1ccc(C(c2cncnc2C(F)(F)F)N(C)C(=O)Cc2ccccc2)cc1 (racemic) [1-484] | 5 | 1 | 5 | 5 | 5 | 5 | 5
COc1ccccc1C(c1cncnc1C(F)(F)F)N(C)C(=O)Cc1ccc(F)cc1 (racemic) [1-489] | 5 | 1 | 5 | 5 | 4 | 5 | 5
COc1ccccc1C(c1cncnc1C(F)(F)F)N(C)C(=O)Cc1ccc(Cl)cc1 (racemic) [1-490] | 5 | 0 | 5 | 5 | 4 | 5 | 5
